This is an account of results in patent US5049372A, “Anticancer activities in a host by increasing blood and plasma adenosine 5'-triphosphate (ATP) levels” (priority 1988, dated 1991).

Molecules are shown by their SMILES. Entries after “also recorded” stand apart in the source; their conditions may differ.

Data set [1] in a line: ATP levels in mouse blood (total cellular) and plasma after i.p. injection (Table 3). It is filed as in vivo. The note with it: for Blood ATP levels: total cellular. On the procedure: The mice are anesthetized with ether during the procedure. The plasma is prepared by immediate centrifugation of the blood in a Beckman microfuge (30 sec at 8000 xg). Blood (20 μl) or plasma (100 μl) aliquots are added to 1 ml of cold 7% trichloroacetic acid. […] The determination of ATP levels in the extracts is performed by bioluminometry (luciferinluciferase) using a Turner Designs Bioluminescence Photometer.

Data set [2] concerns RBC ATP pools. The data set can be described thus: Expansion of RBC ATP pools and blood plasma ATP levels after i.p. injection (Table 4). It is filed as in vivo, mouse. The settings on record: for Plasma ATP levels / RBC ATP pools / Plasma [^3 ]ATP levels immediately after [^3 H]adenosine incorporation into whole blood: 5 hours after i.p. injection of 2 ml of 35 mM, CB6F1; for Plasma ATP levels / RBC ATP pools: bioluminometry, citrate-dextrose; for Plasma [^3 ]ATP levels immediately after [^3 H]adenosine incorporation into whole blood: radioactivity corrected by RBC specific radioactivity; for Duration of expansion of RBC ATP pools: after complete adsorption across the peritoneal membrane; for Time at which expansion of RBC ATP pools could be detected: after i.p. injection; for Increase in plasma (extracellular) ATP levels (in words): i.p. administration; for Expansion of RBC ATP pools (in words): i.p. injection, host animals. The procedure: The mice are anesthetized with ether during the procedure. Plasma or Hanks' (Balanced Salt Solution) BSS media from incubated isolated RBCs (Red Blood Cells) are prepared by centrifugation of whole blood or RBCs in a Beckman microfuge (30 seconds at 8000 xg) and samples of 100 μl are added to 1 ml of ice-cold 7% trichloroacetic acid. Red blood cells are prepared by centrifugation of whole blood (1500 xg for 5 minutes at 4° C.) and removal of plasma and the buffy coat is followed by a wash of the pelleted RBCs (from 250 μl of whole blood) in 5 ml of ice-cold Hanks' BSS. After centrifugations, the RBCs pellet is resuspended in Hanks' BSS to yield a total volume with the original hematocrit (percent of RBCs volume in the whole blood). Aliquots of 20 μl of RBCs suspensions or whole blood are added to 1 ml of ice-cold 7% trichloroacetic acid. Extraction of acid-soluble nucleotides and determinations of ATP levels by luminometry followed procedures discussed hereinabove. Levels of [^3 H]ATP in whole blood, RBCs, plasma, or RBCs incubation media (Hanks' BSS) are determined after incorporation of 250 μCi of [^3 H]adenosine of specific radioactivity of 30 Ci/mmol (1 Ci=3.7×10^10 becquerels) into whole blood or RBC suspensions (250 μl total) followed by immediate trichloroacetic acid extractions as described above. Two dimensional thin layer chromatography on poly(ethylene)imine cellulose with an unlabeled ATP carrier is performed according to Bochner and Ames, J. Biol. Chem., 257, pp. 9759-9769, 1982). For the determination of whole blood or isolated RBC [^3 H]ATP pools, 10 μl of a 1 ml initial trichloroacetic acid extract are chromatographed. Determinations of [^3 H]ATP levels in blood plasma or RBCs incubation media are performed on 300 μl of an initial 1 ml trichloroacetic acid extract which are lyophilized and redissolved in 15 μl of water. After chromatography, the spots corresponding to the ATP carrier are cut, eluted with 0.5 ml of 4 N ammonium hydroxide, and radioactivity determined in 10 ml of scintillation fluid.
Single intraperitoneal injections of 2 ml of 35 mM of AMP or ATP in saline at pH 6.2 into CB6F1 mice result in expansions of RBC ATP pools in these mice (see Table 4).
The expansions of RBC ATP pools after i.p. injections of AMP or ATP could be detected 30 minutes after injections and lasted for approximately 6-8 hours after the nucleotides were completely adsorbed across the peritoneal membrane and into the systemic circulation. The rates of adsorption of intraperitoneal AMP or ATP solutions varied in different strains of mice. […] These plasma ATP levels originate in RBCs since they can be metabolically labeled by [^3 H]adenosine. Plasma ATP pools which originate in the dense granules of blood platelets would not be radioactively labeled under the same conditions (e.g., Holmsen, 1985, Seminars in Hematol, 22, 219-240). The experiments described in Tables 4 and 5 include uptake of [^3 H]adenosine by whole blood (Table 4) or isolated washed RBCs (Table 5 below). In both cases, all the extracellular ATP, determined seconds after the uptake of [^3 H]adenosine, is metabolically labeled.

Data set [3] has as its system RBC ATP pools. Briefly: RBC ATP pools after in vitro incubation of whole mouse blood with 1 mM compound (Table 6). The settings on record: for RBC ATP pools (after 30 min incubations in heparinized mouse blood): 1 mM compound, bioluminometry. It is filed as cell-based. On the procedure:
^+ RBC ATP pools were determined in isolated washed RBCs after
incubations of whole blood with 1 mM of the specified compound by
bioluminometry. Data represent means ± S.D. of three separate

Data set [4] is described as follows: Inhibition of host weight loss (cancer cachexia) in CT26 tumor-bearing mice. It is filed as in vivo, mouse. The settings on record: FIG. 3; treatment initiated day 1 (A), day 5 (B) or day 9 (C). The procedure: A further series of tests are conducted whereby tumors are inoculated by injections of 2.5×10^5 CT26 cells (over 90% viability) in 50 μl of phosphate-buffered saline into the right hind footpad of CB6F1 mice. The treatments were initiated at a variety of times after inoculation of the tumors. The injection schedules started either 1 or 5 days after tumor inoculation when none of the tumors are palpable or when the tumors are clearly palpable (average calculated weight of 100 mg), which occur in 100% of the inoculated mice after 8-11 days. Mice are randomized, divided into groups, and injected daily with 2.2 ml of saline, adenosine, AMP, or ATP (compounds are in sterile saline solutions at concentrations of 25 mM with AMP and ATP solutions adjusted to pH 6.2). Injections are administered intraperitoneally with 30 gauge needles and the mice are lightly anesthetized with […]. The mice are weighed and tumor sizes measured before the start of the treatment schedule and every three days during and after the treatment schedule. These determinations are performed before injections during the treatment period.
In particular, see FIG. 2. FIG. 2 illustrates inhibition of tumor growth (---) and host weight loss (-) in tumor-bearing mice by treatment with adenine nucleotides. Mice (CB6F1, 8 week old males) bearing palpable CT26 footpad tumors (on day 9 after tumor inoculation) are treated with saline (.smallcircle.), adenosine (o), AMP (Δ), or ATP (.quadrature.) as described herein. An untreated group is also included (x). Arrows indicate days of injection.
FIG. 3 further illustrates inhibition of host weight loss in tumor-bearing animals by treatment with adenine nucleotides. Mice (CB6F1, males, 7 weeks old, in A, 10 weeks old in B, C) are inoculated with CT26 tumors and daily treatments (for 10 consecutive days) with saline (.smallcircle.), adenosine (o), AMP (Δ), or ATP (.quadrature.) are initiated 1 day (A), 5 days (B), or 9 days after tumor inoculation (when all the tumors were palpable) (C). Arrows indicate days of injection. Experimental procedures were outlined in the text.

Data set [5] relates to tumor cells. The settings on record: low doses; prior application Ser. No. 397,897; cited from earlier work.
[6] abbreviates: CB6F1, 1 hour after i.p. 1 ml of 50 mM.
Setting [7] is: CB6F1, 5 hours after i.p. 1 ml of 50 mM.
Where [8] appears, read: athymic nu/nu, 1 hour after i.p. 1 ml of 50 mM.
Where [9] appears, read: athymic nu/nu, 4 hours after i.p. 1 ml of 50 mM.

For the compound `Nc1ncnc2c1ncn2[C@@H]1O[C@H](COP(=O)(O)O)[C@@H](O)[C@H]1O` [AMP, adenosine 5'-monophosphate], in data set [1] (setting [6]), the “Plasma ATP levels” value turned out to be 1.75 ± 0.36 µM and the “Blood ATP levels” value amounted to 1.23 ± 0.21 mM. Further, in data set [1] (setting [7]), the “Plasma ATP levels” value worked out at 1.69 ± 0.19 µM and the “Blood ATP levels” value came to 1.36 ± 0.24 mM. In addition, in data set [1] (setting [8]), the “Plasma ATP levels” value was found to be 2.17 ± 0.36 µM and the “Blood ATP levels” value is recorded as 1.87 ± 0.46 mM. In data set [1] (setting [9]), the “Plasma ATP levels” value was 1.97 ± 0.41 µM and the “Blood ATP levels” value amounted to 2.35 ± 0.67 mM. For the same compound, in data set [2], the “Plasma ATP levels” value was found to be 3.10 ± 0.96 µM, the “RBC ATP pools” value worked out at 1.78 ± 0.32 mM, the “Plasma [^3 ]ATP levels immediately after [^3 H]adenosine incorporation into whole blood” value was determined as 2.86 ± 1.06 µM and the “Duration of expansion of RBC ATP pools” value was in the range of 6 to 8 h. In addition, in data set [2], the “Time at which expansion of RBC ATP pools could be detected” value came out at 30 min, the “Increase in plasma (extracellular) ATP levels (in words)” value is recorded as “markedly increased; also recorded: several fold increases in plasma (extracellular) ATP levels” and the “Expansion of RBC ATP pools (in words)” value is on record as “yielded expansions of red blood cell (RBC) ATP pools”. Further, in data set [3], the “Increase in RBC ATP pools after in vitro treatment of whole mouse blood (in words)” value is “marginal increases in RBC ATP pools” and the “RBC ATP pools (after 30 min incubations in heparinized mouse blood)” value worked out at 0.73 ± 0.10 µM. In addition, the “Deaths before stated day after tumor inoculation” value in data set [4] is “No deaths occurred before day 19 (A) or day 25 (B,C)”. In data set [5], the “Effect on growth of tumor cells in vitro (in words)” value is reported as “would not inhibit cellular growth”.

`Nc1ncnc2c1ncn2[C@@H]1O[C@H](COP(=O)(O)OP(=O)(O)OP(=O)(O)O)[C@@H](O)[C@H]1O` [ATP, adenosine 5'-triphosphate]: in data set [1] (setting [6]), the “Plasma ATP levels” value came out at 3.99 ± 0.81 µM and the “Blood ATP levels” value is given as 2.53 ± 0.61 mM. In data set [1] (setting [7]), the “Plasma ATP levels” value came out at 5.14 ± 0.71 µM and the “Blood ATP levels” value came out at 3.47 ± 0.57 mM. In data set [1] (setting [8]), the “Plasma ATP levels” value amounted to 2.93 ± 0.69 µM and the “Blood ATP levels” value worked out at 2.71 ± 0.54 mM. In data set [1] (setting [9]), the “Plasma ATP levels” value came out at 3.01 ± 0.76 µM and the “Blood ATP levels” value was found to be 4.26 ± 0.79 mM. In addition, in data set [2], the “Plasma ATP levels” value was 4.94 ± 1.17 µM, the “RBC ATP pools” value is on record as 2.49 ± 0.42 mM, the “Plasma [^3 ]ATP levels immediately after [^3 H]adenosine incorporation into whole blood” value is 5.75 ± 2.05 µM and the “Duration of expansion of RBC ATP pools” value is 6 to 8 h. Besides, in data set [2], the “Time at which expansion of RBC ATP pools could be detected” value was 30 min, the “Increase in plasma (extracellular) ATP levels (in words)” value is listed as “markedly increased; also recorded: several fold increases in plasma (extracellular) ATP levels” and the “Expansion of RBC ATP pools (in words)” value is reported as “yielded expansions of red blood cell (RBC) ATP pools”. For the same compound, in data set [3], the “Increase in RBC ATP pools after in vitro treatment of whole mouse blood (in words)” value is listed as “marginal increases in RBC ATP pools” and the “RBC ATP pools (after 30 min incubations in heparinized mouse blood)” value was determined as 0.76 ± 0.05 µM. Further, the “Deaths before stated day after tumor inoculation” value in data set [4] was “No deaths occurred before day 19 (A) or day 25 (B,C)”. Also, the “Effect on growth of tumor cells in vitro (in words)” value in data set [5] is “marked inhibition of DNA synthesis and arrest of significant populations of cells in the S phase of their cycle”.
